The text below walks through data of paper PMC10818380, “Triphenylphosphonium Analogs of Short Peptide Related to Bactenecin 7 and Oncocin 112 as Antimicrobial Agents” (Pharmaceutics, 2024).

As usually defined, the IC50 is the concentration needed to halve the response being measured. The low end stands for greater potency, the high end for weaker potency.

Assay [1] relates to B. subtilis 168. Also noted: method as in PMID 33922611. To be noted: cited from earlier work.
The subject of assay [2] is B. subtilis CFR. The following applies: cited from earlier work.
The subject of assay [3] is E. coli JW5503 (∆tolC) (KanS) pDualrep2. Nature of the assay: pDualrep2 double-reporter agar plate test. The following applies: 1 µL of 10 mM solution on agar plate. The format is cell-based. Here is the method: The “pDualrep2” system was used to evaluate the mechanism of the antimicrobial action of the synthesized compounds. This system is based on the hypersensitive strain E. coli JW5503 (∆tolC) (KanS) transformed with the “pDualrep2” plasmid, which allows one to sort out suppressors of protein synthesis or SOS response inducers. Briefly, 1 µL of 10 mM water solutions of Bac(1–10), Bac(1–10, R/Y), Bac(1–10, R/Y)-Cn-TPP, TPP-C10-Bac(1–10, R/Y), and Onc112 were applied onto the agar plate that already contained a layer of the reporter strain E. coli JW5503 (∆tolC) (KanS) pDualrep2, and then the plate was incubated overnight at 37 °C. The agar plate was scanned using the ChemiDoc^TM Imaging System (Bio-Rad Laboratories, Hercules, CA, USA), containing two channels, “Cy3-blot” (553/574 nm; green pseudocolor) for Turbo Red Fluorescent Protein (TurboRFP) detection and “Cy5-blot” (588/633 nm; red pseudocolor) for Katushka2S fluorescence. […] Levofloxacin (LEV; 50 μg/mL, 1 μL) and erythromycin (ERY; 5 mg/mL, 1 μL) were utilized as positive controls for DNA and protein synthesis inhibitors, respectively.

For a further assay, the system named is B. subtilis. Nature of the assay: Membrane potential with fluorescent probe diS-C3-(5). The format is cell-based. To be noted: 2.5 µM, diS-C3-(5) fluorescence. Here is the method: The membrane potential of B. subtilis was assessed by measuring the fluorescence emitted by the potential-dependent probe, diS-C3-(5). Bacterial cells derived from the overnight culture of B. subtilis were inoculated into a fresh LB medium and allowed to grow for 24 h until reaching an optical density of 0.8 at 600 nm. Subsequently, the bacteria were subjected to a 20-fold dilution in a buffer comprising 100 mM of KCl and 10 mM of Tris, adjusted to a pH of 7.4. Fluorescence measurements were conducted at 670 nm (with excitation at 630 nm) using a Fluorat-02-Panorama fluorimeter manufactured by Lumex Instruments in St. Petersburg, Russia.

Assay [4] has as its system bacterial translation (E. coli S30 extract). Nature of the assay: In vitro translation inhibition of firefly luciferase mRNA, E. coli S30 extract. The format is biochemical. To be noted: 30 µM. Here is the method: Briefly, in vitro-transcribed firefly luciferase mRNA (fluc) was translated using the E. coli S30 Extract System for Linear Templates (Promega, Madison, WI, USA). Reaction mixtures (with a 5 μL total volume) supplemented with 0.1 mM of a mixture of all canonical amino acids, 4 U of RiboLock RNase Inhibitor (Thermo Fisher Scientific, Waltham, MA, USA), and 0.1 mM of D-luciferin (Sigma-Aldrich, Burlington, MA, USA) were pre-incubated at RT for 5 min after the addition of the tested compounds at a final concentration of 30 µM. Then, 50 ng of the mRNA was added to each reaction tube, and the mixtures were immediately subjected to continuous chemiluminescence measurements using the VICTOR X5 Multilabel Plate Reader (PerkinElmer, Waltham, MA, USA) at 37 °C for 30 min. The maximal rates of the firefly luciferase (Fluc) accumulation were calculated using the OriginPro 7.5 software. The values were normalized to a positive control (0.3% DMSO, assigned a value of 100%).

In the next assay the test system is HEK293T. Nature of the assay: cells. To be noted: 72 h. It counts as cell-based, human. Here is the method: (§1) The cytotoxicity of the substances under study was tested using the MTT (3-(4,5-dimethylthiazol-2-yl)-2,5-diphenyltetrazolium bromide) assay with some modifications. The detailed procedure for the MTT assay is given in the Supplementary Materials (Section S5).
(§2) Two thousand five hundred cells per well for the MCF7, HEK293T, and A549 cell lines or 4000 cells per well for the VA13 cell line were plated in 135 µL of DMEM-F12 media with 10% FBS (both Gibco, Waltham, MA, USA) in a 96-well plate and were incubated in a 5% CO2 incubator for the first 16 h, without treatment. Then 15 µL of media-DMSO solutions of the tested substances were added to the cells (the final DMSO concentrations in the media were 1% or less), and the cells were treated for 72 h with 25 nM–50 µM (eight dilutions) of the tested substances (triplicate each). Serial dilutions of DMSO and doxorubicin were used as controls. The MTT reagent (Paneco LLC, Moscow, Russia) was then added to the cells at a final concentration of 0.5 g/L (10× stock solution in PBS was used) and incubated for 2.5 h at 37 °C in the incubator under an atmosphere of 5%
(§3) CO2. The MTT solution was then discarded, and 140 µL of DMSO (PharmaMed LLC, Krasnodar, Russia) was added. The plates were swayed on a shaker (60 rpm) to dissolve the formazan. The absorbance was measured using the VICTOR X5 Multilabel Plate Reader (PerkinElmer, Wa l th a m, MA, USA) at a wavelength of 565 nm (in order to measure formazan concentration). The resu l ts were used to construct a dose-response graph and to estimate IC50 values.
(§4) Figure S11.The dependencies of viability of cells after treatment by tested compounds.
(§5) (1 picture or pasted object on this page, not shown here)

A further assay relates to MCF7. Nature of the assay: cells. The following applies: 72 h. It counts as cell-based, human. Here is the method:
as §1, §2, §3, §4, §5

Another assay relates to VA13. Nature of the assay: cells. The format is cell-based, human. The following applies: 72 h. Here is the method:
as §1, §2, §3, §4, §5

Another assay deals with 70S E. coli ribosome. Nature of the assay: Competition-binding assay, displacement of BODIPY-Bac(1–10), fluorescence anisotropy. To be noted: CI (α = 0.05), read-out: apparent dissociation constant (KD). Here is the method:
70S ribosomes were isolated from E. coli MRE600 cells according to a published procedure. The binding of BODIPY-Bac(1–10) to 70S E. coli ribosomes was performed according to the following procedure. BODIPY-Bac(1–10) (16 nM) was incubated with ribosomes (from 0.5 nM to 2000 nM) for 2 h at 26 °C in a buffer containing 20 mM of HEPES-KOH (pH 7.5), 50 mM of NH4Cl, 10 mM of Mg(CH3COO)2, 4 mM of β-mercaptoethanol, and 0.05% Tween-20. The binding affinities of peptides 1 and 2, their TPP analogs 3–5, as well as the control compounds for the E. coli ribosome were analyzed via a competition-binding assay using fluorescently labeled BODIPY-Bac(1–10) or BODIPY-ERY, as described before in [38, 54]. The fluorescent compound (16 nM) was mixed with ribosomes (84 nM for BODIPY-Bac(1–10) and 46 nM for BODIPY-ERY) in the buffer. Solutions of the tested compounds were added to the obtained complexes to final concentrations ranging from 0.01 to 100 µM. The mixtures were incubated for 2 h at 26 °C, and then the values of fluorescence anisotropy were measured with a VICTOR X5 Multilabel Plate Reader (PerkinElmer, Waltham, MA, USA) using a 384-well plate. The excitation wavelength was 485 nm, and the emission wavelength was 535 nm. From the data obtained, apparent dissociation constants were calculated.
(In general: Polarisation of emitted light reports the rotation of a fluorescent probe.)

The test system of a further assay is A549. The experiment in a line: cells. The following applies: 72 h. Here is the method:
as §1, §2, §3, §4, §5

A further assay relates to E. coli JW0368 ΔsbmA. Nature of the assay: microbe, parasite or virus in culture. It counts as cell-based. Here is the method: (§6) The MIC values for Bac(1–10), Bac(1–10, R/Y), Bac(1–10, R/Y)-Cn-TPP, TPP-C10-Bac(1–10, R/Y), and Onc112 were determined via LB broth microdilution, as recommended by CLSI in the Methods for Dilution Antimicrobial Susceptibility Tests for Bacteria that Grow Aerobically, Approved Standard, 9th ed., CLSI document M07-A9, using in-house-prepared panels. The compounds were diluted in a 96-well microtiter plate to final concentrations ranging from 0.1 to 100 µM in a 200 µL aliquot of the bacterial suspension, followed by incubation at 37 °C for 18 h. The cell concentration was estimated according to the absorbance (A600). The measurements were performed with a VICTOR X5 Multilabel Plate Reader (PerkinElmer, Waltham, MA, USA). The following bacterial strains were used: E. coli BW25113, E. coli JW0368 ΔsbmA, B. subtilis 168, and B. subtilis CFR [39].

The subject of assay [5] is B. subtilis CFR. The experiment in a line: microbe, parasite or virus in culture. It counts as cell-based. To be noted: CFR, 18 h. Here is the method: as §6
Another assay relates to E. coli BW25113. Nature of the assay: microbe, parasite or virus in culture. It counts as cell-based. The following applies: E. coli BW25113, 37 °C, 18 h. Here is the method: as §6
Assay [6] deals with B. subtilis 168. The experiment in a line: microbe, parasite or virus in culture. The following applies: B. subtilis 168, 37 °C, 18 h. It counts as cell-based. Here is the method:
as §6

Converted amounts (≈) assume the structure as drawn. Read-outs that look alike come from different tables or passages of the source. Peptide text beside a SMILES is read from it. * marks the point of attachment. X3 = O=C(CCCCCCCCCC[P+](c1ccccc1)(c1ccccc1)c1ccccc1)* Where only a bound is given, the exact number is not on record here.

Take `O=C(N[C@H](CO)[C@H](O)c1ccc([N+](=O)[O-])cc1)C(Cl)Cl` [Chloramphenicol]: the MIC in the assay with B. subtilis 168 [1] is listed as 12 µM (≈ 3.88 µg/mL); with B. subtilis CFR [2], 90 µM (≈ 29.1 µg/mL).
For `CC[C@H](C)[C@H](NC(=O)[C@H](CCCNC(=N)N)NC(=O)[C@H](CCCNC(=N)N)NC(=O)CCCCCCCCCC[P+](c1ccccc1)(c1ccccc1)c1ccccc1)C(=O)N[C@@H](CCCNC(=N)N)C(=O)N1CCC[C@H]1C(=O)N[C@@H](CCCNC(=N)N)C(=O)N1CCC[C@H]1C(=O)N1CCC[C@H]1C(=O)N[C@@H](Cc1ccc(O)cc1)C(=O)N[C@@H](CC(C)C)C(=O)O` [Compound 5, TPP-C10-Bac(1–10, R/Y)] (X3-RRIRPRPPYL-OH), in assay [3], the “inhibitory effect on growth of bacterial cells” value is recorded as “demonstrated an inhibitory effect on the growth of bacterial cells”. In addition, the “effect on membrane potential of B. subtilis” value with B. subtilis is “decrease in the membrane potential, to a somewhat lesser extent”. The “inhibition of bacterial translation of firefly luciferase (Fluc) mRNA” value in [4] is given as “weakly inhibited”. The concentration for half-maximal inhibition (IC50) in the assay with HEK293T was 36 ± 4 µM; with MCF7, over 20 µM; in the assay on VA13, over 50 µM; with A549, over 50 µM. The Kd with 70S E. coli ribosome was determined as 0.16 ± 0.02 µM. Also, the MIC against E. coli JW0368 ΔsbmA (E. coli ∆sbmA, 37 °C, 18 h) worked out at 5.3 µM; with B. subtilis CFR [5], 12.5 µM; with E. coli BW25113, 5.3 µM; against B. subtilis 168 [6], 12.5 µM. The “comparison of MIC values, E. coli ΔsbmA versus wild type” value in the assay with E. coli JW0368 ΔsbmA (MIC values of Table 1) is recorded as “the same”.
